The values that follow come from patent US5128345A, “Carcinostatic composition comprising indolquinolines” (Mect Corporation, priority 1988, dated 1992).

For assay [1] the following is noted: J. Med. Chem., vol. 17, 922 (1974); among acridines with the 9-position alkylamino group replaced; cited from earlier work.
Another assay has as its system P-388. Put plainly: Prolongation of life span in P-388 cancer implanted mouse (in vivo). Further details: species or system CDF Mouse. The note with it: Day 1 and Day 5, P-388 inoculated i.p., 10^6 cells/mouse. How it is done: Effect on Prolongation of Life Span in Cancer implanted Mouse and Acute Toxicity
Pharmacological effects of the compounds as used in Test Example 1 were tested in vivo using P-388 implanted mice.
Animal Used: CDF Mouse (6 mice/group),
Number of Inowlated Cells: 10^6 cells/mouse,
Day of Administration: Day 1 and Day 5,
Dosage: LD50 or 400 mg/kg/day at the maximum.
The treatment was judged as effective when the ratio of survival of the treated group to that of the control group (T/C %) was 120% or more. The survival period of the control group was generally about 10 days.

The next assay relates to KB cells. Put plainly: Test for inhibiting multiplication/growth of KB cells (in vitro). The note with it: compound added Day 1, cells counted Day 4, 37° C., 5% CO2, 50% inhibition rate, 4320 min. It counts as cell-based, Human. How it is done:
1) Function for Inhibiting Multiplication of KB-1 Cell (in vitro test)
KB cells, carcinomatous cell tumors, were transferred to in vitro floatation incubator systems, and added respectively with the Compounds (1), (2) and (3). The results of cultivation added with the Compounds (1), (2) and (3) were compared with the result of the control which was not added with any compound.
Cell used: KB Cell (Originating from Human Mouth Epidermal Cancer),
Culture medium: Eagles Minimal Essential Medium supplemented with 10% Calf Serum,
Cultivation: 37° C. Carbon dioxide Gas incubator (5% CO2).
KB cells were diluted in the culture medium to adjust the KB cell density to 2 x 10^4 /ml.
Three ml of the cell suspension was inoculated in each of 60 mm plastic dishes.
Two dishes per standard dosage were used.
Test compound was added to the medium so that the final concentrations were set to 100, 30, 10, 3 and 1 μg/ml.
Cells were scraped off from the dish using trypsin, and the cell number was countered using a Corter counter.
In general accordance with the stipulations set forth by the National Cancer Institute (NCI), U.S.A., the concentration of compound necessary for exerting 50% growth inhibition (ED50) compared to the control was determined.

For `COc1cc(NS(C)(=O)=O)ccc1Nc1c2ccccc2nc2ccccc12` [Amsacrine, N-(4-(9-acridylamino)-3-methoxyphenyl)methanesulfonamide], the carcinostatic function entry in assay [1] is “highest carcinostatiac function”.

Consider `COc1cc(NS(C)(=O)=O)ccc1Nc1c2ccccc2nc2c1[nH]c1ccccc12` [Compound 1], for which the “Ratio of Life Prolongation (T/C %)” value in the assay on P-388 (6.25 mg/kg) is recorded as 300%; with P-388 (12.5 mg/kg), 203%; with P-388 (25 mg/kg), 111%. In addition, in the assay on KB cells, the “ED50: concentration of compound necessary for exerting 50% growth inhibition compared to the control (Concentration at Inhibition Rate 50%)” value was determined as 0.3 µg/mL.

Regarding `COc1cc(NS(C)(=O)=O)ccc1Nc1c2ccccc2nc2cc3ccccc3cc12` [Compound 2, N-(4-((benzo(b)acridine-12yl)amino)-3-methoxyphenyl)methanesulfonamide], the “Ratio of Life Prolongation (T/C %)” value with P-388 (100 mg/kg) was 122%; in the assay with P-388 (200 mg/kg), 130%; in the assay with P-388 (400 mg/kg) it was 130%. In addition, the “ED50: concentration of compound necessary for exerting 50% growth inhibition compared to the control (Concentration at Inhibition Rate 50%)” value in the assay with KB cells was 1.15 µg/mL.

As for `COc1cc(NS(C)(=O)=O)ccc1Nc1c2ccccc2nc2c1ccc1ccccc12` [Compound 3], the “Ratio of Life Prolongation (T/C %)” value in the assay on P-388 (50 mg/kg) was found to be 157%; in the assay on P-388 (100 mg/kg), 163%; in the assay with P-388 (200 mg/kg), 204%.
